Data on 17 compounds can be found in ChEMBL document CHEMBL4431301, “The Medicinal Chemistry of Dengue Virus” (J Med Chem, 2016).

Series [1] concerns the target T1, Genome polyprotein (dengue virus type 2, UniProt P29990). Kind of series: Inhibition of Dengue virus 2 NS2B-NS3 protease using Abz-Nle-Lys-Arg-Arg-Ser-3-(NO2)Tyr as substrate preincubated for 15 mins followed by addition of substrate measured after 15 mins by fluorescence assay.
Series [2] has as its system dengue virus type 2. Description: Antiviral activity against Dengue virus 2 assessed as inhibition of viral replication. The series is classed as functional, organism-based.
The subject of series [3] is dengue virus type 2. Kind of series: Antiviral activity against Dengue virus 2 NGC infected in african green monkey Vero cells assessed as inhibition of viral yield after 48 hrs. It is filed as functional, organism-based.
For series [4], the system named is Junin virus. Kind of series: Antiviral activity against Junin virus IV4454 infected in african green monkey Vero cells assessed as inhibition of viral yield after 48 hrs. The series is classed as functional, organism-based. As to conditions: Mammarenavirus juninense.
Series [5] has as its system dengue virus type 2. Description: Antiviral activity against Dengue virus 2 infected in BHK21 cells assessed as reduction in virus replication after 72 hrs by renilla luciferase reporter gene assay. Particulars: BHK-21, 72 h. It is filed as functional, organism-based.
A short description of series [6]: Selectivity index, ratio of CC50 for BHK21 cells to EC50 for Dengue virus 2 infected in BHK21 cells. It is filed as toxicity, cell-based. Particulars: hamster, read-out: Ratio CC50/EC50.
Series [7] in a line: Binding affinity to His-tagged Dengue virus 3 methyltransferase expressed in Escherichia coli Rosetta 2(DE3) by VP-ITC isothermal titration calorimetry. Details: species or system dengue virus type 3. For orientation: Isothermal titration calorimetry measures the heat released or taken up as one component is titrated into another.
Series [8] concerns dengue virus type 4. Description: Antiviral activity against Dengue virus 4 8124 infected in african green monkey Vero cells assessed as inhibition of viral yield after 48 hrs. The series is classed as functional, organism-based. As to conditions: Dengue virus, 8124, Vero.
In series [9] the test system is dengue virus type 3. Description: Antiviral activity against Dengue virus 3 H87 infected in african green monkey Vero cells assessed as inhibition of viral yield after 48 hrs. The series is classed as functional, organism-based.
Series [10] deals with dengue virus type 1. Description: Antiviral activity against Dengue virus 1 Hawaii infected in african green monkey Vero cells assessed as inhibition of viral yield after 48 hrs. The series is classed as functional, organism-based.
For series [11], the system named is dengue virus type 2. Description: Antiviral activity against Dengue virus 2 16681 infected in human HuH7 cells after 72 hrs by indirect immunofluorescent flow cytometry. The series is classed as functional, organism-based. Particulars: Dengue virus, 16681, Huh-7, 72 h. A general note: Flow cytometry measures light scatter and fluorescence of single cells or particles in a stream.

In series [12] the test system is dengue virus type 2. Description: Antiviral activity against Dengue virus 2 NGC infected in human A549 cells assessed as reduction in virus replication after 48 hrs by renilla luciferase reporter gene assay. It is filed as functional, organism-based. Particulars: A549, 48 h.
Series [13] deals with Nonstructural protein 5 (Dengue virus, UniProt V5TFZ2). Description: Inhibition of Dengue virus ribose 2'-O methyltransferase using RNA substrate after 20 mins in presence of [methyl-3H]-AdoMet by microbeta counting analysis.
For series [14], the system named is dengue virus type 3. Description: Potency index, ratio of S-adenosyl-L-methionine Kd to sinefungin Kd for His-tagged Dengue virus 3 methyltransferase expressed in Escherichia coli Rosetta 2(DE3).
Series [15] is described as follows: Inhibition of Dengue virus guanine N-7 methyltransferase using RNA substrate after 20 mins in presence of [methyl-3H]-AdoMet by microbeta counting analysis.
Series [16] relates to dengue virus type 2. Kind of series: Antiviral activity against Dengue virus 2 NGC infected in human HuH7 cells assessed as reduction in virus replication after 48 hrs by renilla luciferase reporter gene assay. It is filed as functional, organism-based. Particulars: Huh-7, 48 h.
A short description of series [17]: Cytotoxicity against human HuH7 cells assessed as cell viability after 48 hrs by CellTiter Glo assay. The series is classed as cell-based, Huh-7.
Series [18] deals with dengue virus type 2. Description: Antiviral activity against Dengue virus 2 NGC infected in human HuH7 cells assessed as reduction in viral titer after 24 hrs. The series is classed as functional. As to conditions: Huh-7, 24 h.
In series [19] the test system is dengue virus type 2. Description: Antiviral activity against Dengue virus 2 NGC infected in BHK21 cells after 48 hrs by plaque reduction assay. It is filed as functional, organism-based. As to conditions: BHK-21, 48 h. Background: Plaques are areas of infected cells; plaque reduction assays count them against a control.
For series [20], the system named is dengue virus type 2. Kind of series: Antiviral activity against Dengue virus 2 NGC infected in human K562 cells assessed as inhibition in live viral replication after 48 hrs by plaque assay. As to conditions: K562, 48 h. The series is classed as functional, organism-based.
Series [21] deals with T1, Genome polyprotein. Description: Inhibition of recombinant Dengue virus type 2 NS2B-NS3 protease expressed in Escherichia coli C41 cells using GRR-AMC as substrate after 15 mins by fluorescence assay.

Where a SMILES comes first, the peptide text is derived from it. [ ]: non-standard residue; d: D form. The star is where a group is joined. Nle = CCCC[C@H](N)C(=O)O; Bz = O=C(c1ccccc1)*

T1 sequence (P29990 1346-1475 limits assumed): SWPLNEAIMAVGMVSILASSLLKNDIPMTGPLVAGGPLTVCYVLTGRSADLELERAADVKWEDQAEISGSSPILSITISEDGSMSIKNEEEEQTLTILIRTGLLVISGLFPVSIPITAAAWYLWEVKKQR
T1 sequence (P29990 1476-2093 limits assumed): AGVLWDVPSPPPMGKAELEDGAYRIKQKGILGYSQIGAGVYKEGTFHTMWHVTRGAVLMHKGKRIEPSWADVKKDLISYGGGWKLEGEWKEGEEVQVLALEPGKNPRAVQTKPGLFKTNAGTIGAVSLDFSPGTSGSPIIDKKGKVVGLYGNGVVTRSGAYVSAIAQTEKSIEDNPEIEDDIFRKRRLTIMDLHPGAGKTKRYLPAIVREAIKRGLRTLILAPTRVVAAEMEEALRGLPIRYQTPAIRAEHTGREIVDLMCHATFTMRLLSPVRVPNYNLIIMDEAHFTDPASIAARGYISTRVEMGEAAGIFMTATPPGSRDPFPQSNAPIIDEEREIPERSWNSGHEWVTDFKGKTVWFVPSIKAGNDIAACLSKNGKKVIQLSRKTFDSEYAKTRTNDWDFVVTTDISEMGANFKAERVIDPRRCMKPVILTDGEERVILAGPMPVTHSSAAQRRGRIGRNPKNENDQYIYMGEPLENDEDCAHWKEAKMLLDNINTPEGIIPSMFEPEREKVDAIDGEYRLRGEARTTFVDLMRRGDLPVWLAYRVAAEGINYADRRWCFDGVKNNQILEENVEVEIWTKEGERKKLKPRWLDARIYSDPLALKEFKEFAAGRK
Chain of Nonstructural protein 5 (V5TFZ2 whole entry): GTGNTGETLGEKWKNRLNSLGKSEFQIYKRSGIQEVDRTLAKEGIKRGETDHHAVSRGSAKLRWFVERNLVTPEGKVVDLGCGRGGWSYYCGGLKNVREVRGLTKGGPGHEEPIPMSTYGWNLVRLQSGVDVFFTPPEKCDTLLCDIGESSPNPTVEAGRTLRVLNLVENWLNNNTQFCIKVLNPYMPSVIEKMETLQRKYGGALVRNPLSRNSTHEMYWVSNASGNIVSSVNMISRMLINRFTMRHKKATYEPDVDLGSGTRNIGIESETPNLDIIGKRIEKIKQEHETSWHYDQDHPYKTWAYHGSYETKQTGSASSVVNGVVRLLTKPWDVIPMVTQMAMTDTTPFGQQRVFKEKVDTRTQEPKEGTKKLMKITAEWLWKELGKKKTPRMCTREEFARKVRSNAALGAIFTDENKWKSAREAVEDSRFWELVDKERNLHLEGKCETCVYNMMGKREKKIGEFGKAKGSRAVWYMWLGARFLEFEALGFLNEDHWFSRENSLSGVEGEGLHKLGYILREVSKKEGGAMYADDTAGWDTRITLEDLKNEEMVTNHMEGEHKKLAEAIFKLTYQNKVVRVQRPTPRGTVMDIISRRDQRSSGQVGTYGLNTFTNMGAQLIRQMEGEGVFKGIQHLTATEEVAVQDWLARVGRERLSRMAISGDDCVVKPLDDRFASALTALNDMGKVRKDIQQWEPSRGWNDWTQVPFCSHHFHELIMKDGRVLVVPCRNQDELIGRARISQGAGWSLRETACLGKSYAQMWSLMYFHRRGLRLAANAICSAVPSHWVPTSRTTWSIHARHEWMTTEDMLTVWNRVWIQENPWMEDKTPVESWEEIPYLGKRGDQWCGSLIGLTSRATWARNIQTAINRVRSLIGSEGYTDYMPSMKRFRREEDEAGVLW

The term Ki denotes the equilibrium dissociation constant of an inhibitor or competing ligand from its target. For `CCCC[C@H](NC(=O)[C@H](CCCCN)NC(=O)[C@H](CCCNC(=N)N)NC(=O)c1ccc(/C=C(\C#N)C(=O)NC2CC2)cc1)C(N)=O`, affinity in series [1] was put at a Ki of 4.9 µM. As usually defined, the EC50 is the concentration needed to bring the measured effect to its halfway point. In the case of `CC(C)(C)OC(=O)NC1C(=O)NC2Cc3ccc(c(Cl)c3)Oc3cc4cc(c3O)Oc3ccc(cc3Cl)C(O)C3NC(=O)C(NC(=O)C4NC(=O)C(NC2=O)c2cc(O)cc(c2)Oc2cc1ccc2O)c1ccc(O)c(c1)-c1c(O)cc(O)cc1C(C(=O)NC12CC4CC(CC(C4)C1)C2)NC3=O` (stereo not given), in [2], the EC50 was 6.9 µM. Regarding `CO[C@@H]1[C@H]2OC(C)(C)O[C@H]2O[C@@H]1C(=O)c1cnc2sc(C(=O)c3ccc(Br)cc3)cn12`, the EC50 in series [3] is 29.9 µM; in [4] it was 12 µM. In the case of `Cc1cc(N2C(=O)C(O)=C(C(=O)c3ccc(C)o3)C2c2cc(Cl)cc(Cl)c2)no1` (stereo not given), the EC50 in series [5] amounted to 36 µM. Moreover, the selectivity ratio in [6] turned out to be 4.5. Usually Kd stands for the equilibrium constant for the complex coming apart. In series [7], `C[S+](CC[C@H](N)C(=O)[O-])C[C@H]1O[C@@H](n2cnc3c(N)ncnc32)[C@H](O)[C@@H]1O` (stereo not given in full) [ADEMETIONINE] yielded a Kd of 0.826 µM. As for `C=CCn1c2ccc(Cl)cc2c(=O)c2cccc(OC)c21`, the EC50 in series [3], in series [8], in series [9] and in [10] was 13.5 to 27.1 µM throughout.

In series [11], `NC(=O)c1ncn([C@@H]2O[C@H](CO)[C@@H](O)[C@H]2O)n1` [RIBAVIRIN] displayed an EC50 of 40 µM. `C=CCn1c2ccccc2c(=O)c2ccc(Cl)cc21`: the EC50 lay within 2.5 to 5.5 µM in series [3], 8.3 to 15.9 µM in series [9], 8.3 to 15.9 µM in series [10] and 2.5 to 5.5 µM in series [4].

In the case of `CC(C)n1c(/C=C/C(O)CC(O)CC(=O)O)c(-c2ccc(F)cc2)c2ccccc21` (stereo not given) [FLUVASTATIN], the EC50 in series [12] lay in the range of 1.82 to 8.75 µM. The term IC50 denotes the concentration at which inhibition is half-maximal. With `Nc1ncnc2c1ncn2[C@@H]1O[C@H](C[C@@H](N)CC[C@H](N)C(=O)O)[C@@H](O)[C@H]1O` [SINEFUNGIN], the Kd in series [7] stood at 0.136 µM. Further, the values for the half-maximal inhibitory concentration (IC50) in series [13] and in series [15] were 0.041 µM and 0.03 µM, respectively. Further, the Ratio in [14] is 6.

As usually defined, the CC50 is the concentration at which the toxic effect on the cells reaches its halfway point. As for `C=C1C(=O)OC(CCCCCCCC)C1C(=O)O` (stereo not given), the EC50 in [16] worked out at 5.7 µM. Besides, in series [17], the CC50 at 48 h is more than 100 µM. As a reminder, the EC90 is the concentration needed for an effect of 90%. As for `Cc1nc(Nc2ncc(C(=O)Nc3c(C)cccc3Cl)s2)cc(N2CCN(CCO)CC2)n1` [DASATINIB], the EC90 in series [18] worked out at 4.7 µM. As for `Nc1ncnc2c1ncn2[C@@H]1O[C@H](CSCC[C@H](N)C(=O)O)[C@@H](O)[C@H]1O` [S-ADENOSYLHOMOCYSTEINE], the IC50 in [13] came to 0.49 µM; in series [15], 1.77 µM.

For the compound `OC[C@@H]1[C@@H](O)[C@H](O)[C@@H](O)CN1CCCCC1CCCCC1`, the EC50 in series [19] came out at 1.5 µM.

In the case of `CCCC[C@H](NC(=O)[C@H](CCCCN)NC(=O)[C@H](CCCNC(=N)N)NC(=O)c1ccccc1)C(N)=O` (Bz-Arg-Lys-[Nle]-NH2), the Ki in [1] was 15.6 µM. As to `C=C(CC[C@]12O[C@H](C(=O)O)[C@@](O)(C(=O)O)[C@](C(=O)O)(O1)[C@H](OC(=O)/C=C/[C@@H](C)C[C@@H](C)CC)[C@H]2O)[C@@H](OC(C)=O)[C@H](C)Cc1ccccc1` [ZARAGOZIC ACIDS A], in series [20], the EC50 was found to be 8.3 µM.

For the compound `CC(=O)N[C@@H](CCCNC(=N)N)C(=O)N[C@H](C(=O)N[C@@H](CO)C(=O)N[C@@H](CCCCN)C(=O)N[C@@H](CCCCN)C(=O)N[C@@H](CCCNC(=N)N)C(N)=O)[C@@H](C)O` (Ac-RTSKKR-NH2), the Ki in series [21] is 12 µM.
